In PubChem BioAssay (NCI):
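96-well plates; 48 h exposure; 5 concentrations. Endpoints by linear interpolation between flanking doses. Not reached: highest tested concentration assigned. GI50 = concentration required for 50% inhibition of growth. TGI: total growth inhibition.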

How the values were obtained:
Test in all cases: growth of human tumour cells (NCI), 48 h
M14 melanoma = tested on: M14 melanoma
SK-MEL-2 melanoma = tested on: SK-MEL-2 melanoma
SR leukemia = tested on: SR leukemia
SK-OV-3 ovarian = tested on: SK-OV-3 ovarian
HOP-92 NSCLC = tested on: HOP-92 NSCLC
MDA-MB-435 = tested on: MDA-MB-435
SNB-75 CNS = tested on: SNB-75 CNS
CAKI-1 renal = tested on: CAKI-1 renal
UACC-62 melanoma = tested on: UACC-62 melanoma
CCRF-CEM leukemia = tested on: CCRF-CEM leukemia
HT29 colon = tested on: HT29 colon
K-562 leukemia = tested on: K-562 leukemia
MDA-MB-231 breast = tested on: MDA-MB-231 breast
OVCAR-4 ovarian = tested on: OVCAR-4 ovarian
COLO 205 colon = tested on: COLO 205 colon
786-0 renal = tested on: 786-0 renal
HCC-2998 colon = tested on: HCC-2998 colon
HL-60(TB) leukemia = tested on: HL-60(TB) leukemia
HOP-62 NSCLC = tested on: HOP-62 NSCLC
MALME-3M melanoma = tested on: MALME-3M melanoma
NCI/ADR-RES ovarian = tested on: NCI/ADR-RES ovarian
SW-620 colon = tested on: SW-620 colon
OVCAR-5 ovarian = tested on: OVCAR-5 ovarian
KM12 colon = tested on: KM12 colon
BT-549 breast = tested on: BT-549 breast
IGROV1 ovarian = tested on: IGROV1 ovarian
T-47D breast = tested on: T-47D breast
HS 578T breast = tested on: HS 578T breast
NCI-H522 lung = tested on: NCI-H522 lung
SF-539 CNS = tested on: SF-539 CNS
NCI-H226 lung = tested on: NCI-H226 lung
UO-31 renal = tested on: UO-31 renal
HCT-116 colon = tested on: HCT-116 colon
NCI-H23 lung = tested on: NCI-H23 lung
PC-3 prostate = tested on: PC-3 prostate
U251 CNS = tested on: U251 CNS
OVCAR-3 ovarian = tested on: OVCAR-3 ovarian
RXF 393 renal = tested on: RXF 393 renal
ACHN renal = tested on: ACHN renal
UACC-257 melanoma = tested on: UACC-257 melanoma
A549 NSCLC = tested on: A549 NSCLC
SNB-19 CNS = tested on: SNB-19 CNS
SK-MEL-5 melanoma = tested on: SK-MEL-5 melanoma
MCF7 breast = tested on: MCF7 breast
EKVX NSCLC = tested on: EKVX NSCLC
SN12C renal = tested on: SN12C renal
RPMI-8226 leukemia = tested on: RPMI-8226 leukemia
A498 renal = tested on: A498 renal
SF-295 CNS = tested on: SF-295 CNS
OVCAR-8 ovarian = tested on: OVCAR-8 ovarian
DU-145 prostate = tested on: DU-145 prostate
HCT-15 colon = tested on: HCT-15 colon
MOLT-4 leukemia = tested on: MOLT-4 leukemia
SF-268 CNS = tested on: SF-268 CNS
SK-MEL-28 melanoma = tested on: SK-MEL-28 melanoma
LOX IMVI melanoma = tested on: LOX IMVI melanoma
NCI-H460 lung = tested on: NCI-H460 lung

CC1(C)CCC(S(=O)(=O)c2ccc3c(c2)/C(=N\O)c2cc(S(=O)(=O)N4CCN(c5ccc(F)cc5O)CC4)ccc2-3)CC1
GI50 (M14 melanoma): 35.2 nM | TGI (M14 melanoma): 144 nM | GI50 (SK-MEL-2 melanoma): 73 nM | TGI (SK-MEL-2 melanoma): 204 nM | GI50 (SR leukemia): 29.3 nM | TGI (SR leukemia): 80.2 nM | GI50 (SK-OV-3 ovarian): 109 nM | TGI (SK-OV-3 ovarian): 240 nM | GI50 (HOP-92 NSCLC): 219 nM | TGI (HOP-92 NSCLC): 504 nM | GI50 (MDA-MB-435): 107 nM | TGI (MDA-MB-435): 251 nM | GI50 (SNB-75 CNS): 162 nM | TGI (SNB-75 CNS): 324 nM | GI50 (CAKI-1 renal): 157 nM | TGI (CAKI-1 renal): 351 nM | GI50 (UACC-62 melanoma): 71.7 nM | TGI (UACC-62 melanoma): 221 nM | GI50 (CCRF-CEM leukemia): 93 nM | TGI (CCRF-CEM leukemia): 370 nM | GI50 (HT29 colon): 44 nM | TGI (HT29 colon): 182 nM | GI50 (K-562 leukemia): 50.8 nM | TGI (K-562 leukemia): 188 nM | GI50 (MDA-MB-231 breast): 72.1 nM | TGI (MDA-MB-231 breast): 289 nM | GI50 (OVCAR-4 ovarian): 63.5 nM | TGI (OVCAR-4 ovarian): 263 nM | GI50 (COLO 205 colon): 54.8 nM | TGI (COLO 205 colon): 183 nM | GI50 (786-0 renal): 186 nM | TGI (786-0 renal): 415 nM | GI50 (HCC-2998 colon): 104 nM | TGI (HCC-2998 colon): 262 nM | GI50 (HL-60(TB) leukemia): 98.6 nM | TGI (HL-60(TB) leukemia): 288 nM | GI50 (HOP-62 NSCLC): 101 nM | TGI (HOP-62 NSCLC): 237 nM | GI50 (MALME-3M melanoma): 141 nM | TGI (MALME-3M melanoma): 295 nM | GI50 (NCI/ADR-RES ovarian): 443 nM | TGI (NCI/ADR-RES ovarian): 2630 nM | GI50 (SW-620 colon): 46.7 nM | TGI (SW-620 colon): 168 nM | GI50 (OVCAR-5 ovarian): 164 nM | TGI (OVCAR-5 ovarian): 367 nM | GI50 (KM12 colon): 47.9 nM | TGI (KM12 colon): 220 nM | GI50 (BT-549 breast): 133 nM | TGI (BT-549 breast): 286 nM | GI50 (IGROV1 ovarian): 149 nM | TGI (IGROV1 ovarian): 346 nM | GI50 (T-47D breast): 104 nM | TGI (T-47D breast): 234 nM | GI50 (HS 578T breast): 163 nM | TGI (HS 578T breast): 448 nM | GI50 (NCI-H522 lung): 147 nM | TGI (NCI-H522 lung): 290 nM | GI50 (SF-539 CNS): 127 nM | TGI (SF-539 CNS): 270 nM | GI50 (NCI-H226 lung): 206 nM | TGI (NCI-H226 lung): 512 nM | GI50 (UO-31 renal): 188 nM | TGI (UO-31 renal): 460 nM | GI50 (HCT-116 colon): 33.2 nM | TGI (HCT-116 colon): 119 nM | GI50 (NCI-H23 lung): 230 nM | TGI (NCI-H23 lung): 583 nM | GI50 (PC-3 prostate): 108 nM | TGI (PC-3 prostate): 314 nM | GI50 (U251 CNS): 105 nM | TGI (U251 CNS): 223 nM | GI50 (OVCAR-3 ovarian): 117 nM | TGI (OVCAR-3 ovarian): 285 nM | GI50 (RXF 393 renal): 157 nM | TGI (RXF 393 renal): 314 nM | GI50 (ACHN renal): 282 nM | TGI (ACHN renal): 1340 nM | GI50 (UACC-257 melanoma): 165 nM | TGI (UACC-257 melanoma): 491 nM | GI50 (A549 NSCLC): 68 nM | TGI (A549 NSCLC): 218 nM | GI50 (SNB-19 CNS): 211 nM | TGI (SNB-19 CNS): 486 nM | GI50 (SK-MEL-5 melanoma): 179 nM | TGI (SK-MEL-5 melanoma): 326 nM | GI50 (MCF7 breast): 159 nM | TGI (MCF7 breast): 453 nM | GI50 (EKVX NSCLC): 152 nM | TGI (EKVX NSCLC): 515 nM | GI50 (SN12C renal): 683 nM | GI50 (RPMI-8226 leukemia): 126 nM | TGI (RPMI-8226 leukemia): 1150 nM | GI50 (A498 renal): 840 nM | TGI (A498 renal): 2630 nM | GI50 (SF-295 CNS): 176 nM | TGI (SF-295 CNS): 394 nM | GI50 (OVCAR-8 ovarian): 86.9 nM | TGI (OVCAR-8 ovarian): 402 nM | GI50 (DU-145 prostate): 51.7 nM | TGI (DU-145 prostate): 284 nM | GI50 (HCT-15 colon): 153 nM | TGI (HCT-15 colon): 445 nM | GI50 (MOLT-4 leukemia): 76.2 nM | TGI (MOLT-4 leukemia): 242 nM | GI50 (SF-268 CNS): 109 nM | TGI (SF-268 CNS): 286 nM | GI50 (SK-MEL-28 melanoma): 129 nM | TGI (SK-MEL-28 melanoma): 293 nM | GI50 (LOX IMVI melanoma): 21.3 nM | TGI (LOX IMVI melanoma): 50.4 nM | GI50 (NCI-H460 lung): 66.1 nM | TGI (NCI-H460 lung): 223 nM
